Measurements from patent US4820694A, “Modifications of 3-O-demethylmycinose in macrocin and lactenocin” (priority 1986, dated 1989).
In brackets after ≈: the same amount, converted by molar mass. Like-named read-outs stand apart in the source and are kept apart here.

Experiments:
[1] = tested on: Streptococcus pyogenes C203; assay: protection of mice experimentally infected with S. pyogenes C203; type: in vivo; conditions: mice, mg/kg × 2, doses given 1 and 4 hours postinfection, read-out: ED50
Procedure: The formula 1 compounds have shown in vivo antimicrobial activity against experimentally-induced infections in laboratory animals. When two doses of test compound were administered to mice experimentally infected with S. pyrogenes C203, the activity observed was measured as an ED50 value [effective dose in mg/kg to protect 50% of the test animals: see Warren Wick, et al., J. Bacteriol. 81, 233-235 (1961)].
^a mg/kg × 2; doses given 1 and 4 hours postinfection

[2] = tested on: Streptococcus pneumoniae Park I; assay: microbe, parasite or virus in culture; type: cell-based; conditions: Streptococcus pneumoniae
Procedure: (§1) The MIC's in Table III were determined by standard agar-dilution assays. The MIC's in Table IV were obtained using conventional brothdilution microtiter tests.

[3] = tested on: Staphylococcus aureus S13E; assay: microbe, parasite or virus in culture; type: cell-based; conditions: Staphylococcus aureus, S13E
Procedure: as §1

[4] = tested on: Pasteurella multocida 17E; assay: broth-dilution microtiter MIC test; type: cell-based; conditions: Pasteurella multocida, 17E
Procedure: as §1

Mycoplasma synoviae 40A = assay: broth-dilution microtiter MIC test; type: cell-based; conditions: Mycoplasmopsis synoviae, 40A
Procedure: as §1

[5] = tested on: Pasteurella hemolytica 41D; assay: broth-dilution microtiter MIC test; type: cell-based; conditions: Pasteurella, 41D
Procedure: as §1

[6] = tested on: Pasteurella multocida 22A; assay: broth-dilution microtiter MIC test; type: cell-based; conditions: Pasteurella multocida, 22A
Procedure: as §1

[7] = tested on: Mycoplasma gallisepticum 29C; assay: broth-dilution microtiter MIC test; type: cell-based; conditions: Mycoplasmoides gallisepticum, 29C
Procedure: as §1

[8] = tested on: Pasteurella multocida 60A; assay: broth-dilution microtiter MIC test; type: cell-based; conditions: Pasteurella multocida, 60A
Procedure: as §1

[9] = tested on: Staphylococcus aureus 19C; assay: broth-dilution microtiter MIC test; type: cell-based; conditions: Staphylococcus aureus, 19C
Procedure: as §1

[10] = tested on: Pasteurella multocida 40G; assay: broth-dilution microtiter MIC test; type: cell-based; conditions: Pasteurella multocida, 40G
Procedure: as §1

[11] = tested on: Pasteurella hemolytica 23C; assay: broth-dilution microtiter MIC test; type: cell-based; conditions: Pasteurella, 23C
Procedure: as §1

[12] = tested on: Mycoplasma gallisepticum 15E; assay: broth-dilution microtiter MIC test; type: cell-based; conditions: Mycoplasmoides gallisepticum, 15E
Procedure: as §1

[13] = tested on: Pasteurella multocida 68C; assay: broth-dilution microtiter MIC test; type: cell-based; conditions: Pasteurella multocida, 68C
Procedure: as §1

Streptococcus sp. 19F = assay: broth-dilution microtiter MIC test; type: cell-based; conditions: Streptococcus, SP.19F
Procedure: as §1

Mycoplasma hyorhinis 29E = assay: broth-dilution microtiter MIC test; type: cell-based; conditions: Mycoplasma, 29E
Procedure: as §1

[14] = tested on: Pasteurella hemolytica 22C; assay: broth-dilution microtiter MIC test; type: cell-based; conditions: Pasteurella, 22C
Procedure: as §1

[15] = tested on: Mycoplasma gallisepticum 36H; assay: broth-dilution microtiter MIC test; type: cell-based; conditions: Mycoplasmoides gallisepticum, 36H
Procedure: as §1

[16] = tested on: Bordetella bronchiseptica; assay: broth-dilution microtiter MIC test; type: cell-based; conditions: Bordetella bronchiseptica
Procedure: as §1

[17] = tested on: Haemophilus influenzae 76; assay: standard agar-dilution MIC assay; type: cell-based; conditions: Haemophilus influenzae, 76
Procedure: as §1

[18] = tested on: Staphylococcus epidermidis EPI1; assay: standard agar-dilution MIC assay; type: cell-based; conditions: Staphylococcus epidermidis, EPI1
Procedure: as §1

[19] = tested on: Klebsiella pneumoniae X68; assay: standard agar-dilution MIC assay; type: cell-based; conditions: Klebsiella pneumoniae, X68
Procedure: as §1

[20] = tested on: Haemophilus influenzae C.L.; assay: standard agar-dilution MIC assay; type: cell-based; conditions: Haemophilus influenzae; agar-dilution; Ampicillin-sensitive strain; read-out: MIC
Procedure: as §1

[21] = tested on: Staphylococcus epidermidis EP12; assay: standard agar-dilution MIC assay; type: cell-based
Procedure: as §1

[22] = tested on: Streptococcus Group D 9960; assay: standard agar-dilution MIC assay; type: cell-based; conditions: GROUPD9960, read-out: MIC
Procedure: as §1

Escherichia coli EC14 = assay: standard agar-dilution MIC assay; type: cell-based
Procedure: as §1

[23] = tested on: Pseudomonas aeruginosa X239; assay: standard agar-dilution MIC assay; type: cell-based; conditions: Pseudomonas aeruginosa, X239
Procedure: as §1

[24] = tested on: Streptococcus pyogenes C203; assay: standard agar-dilution MIC assay; type: cell-based; conditions: Streptococcus pyogenes, C203
Procedure: as §1

[25] = tested on: Staphylococcus aureus X400; assay: standard agar-dilution MIC assay; type: cell-based; conditions: Staphylococcus aureus, X400
Procedure: as §1

[26] = tested on: Streptococcus Group D X66; assay: standard agar-dilution MIC assay; type: cell-based; conditions: read-out: MIC
Procedure: as §1

[27] = tested on: Staphylococcus aureus V41; assay: standard agar-dilution MIC assay; type: cell-based; conditions: Staphylococcus aureus, V41
Procedure: as §1

[28] = tested on: Staphylococcus aureus X1.1; assay: standard agar-dilution MIC assay; type: cell-based; conditions: Staphylococcus aureus, X1.1
Procedure: as §1

[29] = broth-dilution microtiter, Bovine isolate, read-out: MIC
[30] = broth-dilution microtiter, read-out: MIC
[31] = broth-dilution microtiter, Avian isolate, read-out: MIC
[32] = agar-dilution, Ampicillin-resistant strain, read-out: MIC

CCC1OC(=O)CC(O)C(C)C(OC2OC(C)C(OC3CC(C)(O)C(O)C(C)O3)C(N(C)C)C2OC(C)=O)C(CC=O)CC(C)C(=O)C=CC(C)=CC1COC1OC(C)C(OC(=O)CC(C)C)C(O)C1OC (stereo not shown) [Compound 5, 2'-O-Acetyl-4'"-O-isovaleryl-macrocin]
ED50 ([1]; C203, Oral): 54.3 mg/kg
ED50 ([1]; C203, sc, Subcutaneous): 9.2 mg/kg
MIC [2]: 0.5 µg/mL (≈ 0.486 µM)
MIC [3]: 2 µg/mL (≈ 1.95 µM)
MIC [4, 29]: > 50 µg/mL
MIC (Mycoplasma synoviae 40A): 1.56 µg/mL (≈ 1.52 µM)
MIC [5, 30]: > 50 µg/mL
MIC [6, 30]: > 50 µg/mL
MIC [7]: 1.56 µg/mL (≈ 1.52 µM)
MIC [8, 31]: > 50 µg/mL
MIC [9]: 3.12 µg/mL (≈ 3.03 µM)
MIC [10, 30]: > 50 µg/mL
MIC [11, 30]: > 50 µg/mL
MIC [12]: 50 µg/mL (≈ 48.6 µM)
MIC [13]: 50 µg/mL (≈ 48.6 µM)
MIC (Streptococcus sp. 19F): 1.56 µg/mL (≈ 1.52 µM)
MIC (Mycoplasma hyorhinis 29E): 1.56 µg/mL (≈ 1.52 µM)
MIC [14, 30]: > 50 µg/mL
MIC [15]: 50 µg/mL (≈ 48.6 µM)
MIC [16, 30]: > 50 µg/mL
MIC [17, 32]: > 128 µg/mL
MIC [18]: 2 µg/mL (≈ 1.95 µM)
MIC ([19]; agar-dilution, read-out: MIC): > 128 µg/mL
MIC [20]: > 128 µg/mL
MIC [21]: 2 µg/mL (≈ 1.95 µM)
MIC [22]: 2 µg/mL (≈ 1.95 µM)
MIC (Escherichia coli EC14; agar-dilution, read-out: MIC): > 128 µg/mL
MIC ([23]; agar-dilution, read-out: MIC): > 128 µg/mL
MIC [24]: 1 µg/mL (≈ 0.973 µM)
MIC [25]: 4 µg/mL (≈ 3.89 µM)
MIC [26]: 2 µg/mL (≈ 1.95 µM)
MIC [27]: 2 µg/mL (≈ 1.95 µM)
MIC [28]: 2 µg/mL (≈ 1.95 µM)

CCC1OC(=O)CC(O)C(C)C(OC2OC(C)C(OC3CC(C)(O)C(O)C(C)O3)C(N(C)C)C2OC(C)=O)C(CC=O)CC(C)C(=O)C=CC(C)=CC1COC1OC(C)C(OC(C)=O)C(O)C1OC (stereo not shown) [Compound 1, 2',4'"-Di-O-acetyl-macrocin]
ED50 ([1]; C203, Oral): 43.5 mg/kg
ED50 ([1]; C203, sc, Subcutaneous): 6.6 mg/kg
MIC ([2]; agar-dilution, read-out: MIC): 0.5 µg/mL (≈ 0.507 µM)
MIC [3]: 4 µg/mL (≈ 4.06 µM)
MIC [4]: > 50 µg/mL
MIC (Mycoplasma synoviae 40A; [30]): 1.56 µg/mL (≈ 1.58 µM)
MIC [5]: > 50 µg/mL
MIC [6]: > 50 µg/mL
MIC [7, 30]: 0.78 µg/mL (≈ 0.791 µM)
MIC [8]: > 50 µg/mL
MIC [9, 30]: 6.25 µg/mL (≈ 6.34 µM)
MIC [10]: > 50 µg/mL
MIC [11]: > 50 µg/mL
MIC [12]: > 50 µg/mL
MIC [13]: > 50 µg/mL
MIC (Streptococcus sp. 19F; [30]): 3.12 µg/mL (≈ 3.16 µM)
MIC (Mycoplasma hyorhinis 29E; [30]): 25 µg/mL (≈ 25.4 µM)
MIC [14]: > 50 µg/mL
MIC [15]: > 50 µg/mL
MIC [16]: > 50 µg/mL
MIC [17]: 1 µg/mL (≈ 1.01 µM)
MIC ([18]; agar-dilution, read-out: MIC): 2 µg/mL (≈ 2.03 µM)
MIC [19]: > 128 µg/mL
MIC [20]: 64 µg/mL (≈ 64.9 µM)
MIC ([21]; agar-dilution, read-out: MIC): 2 µg/mL (≈ 2.03 µM)
MIC [22]: 4 µg/mL (≈ 4.06 µM)
MIC (Escherichia coli EC14): > 128 µg/mL
MIC [23]: > 128 µg/mL
MIC [24]: 1 µg/mL (≈ 1.01 µM)
MIC [25]: 4 µg/mL (≈ 4.06 µM)
MIC [26]: 4 µg/mL (≈ 4.06 µM)
MIC ([27]; agar-dilution, Penicillin-resistant strain, read-out: MIC): 2 µg/mL (≈ 2.03 µM)
MIC ([28]; agar-dilution, read-out: MIC): 2 µg/mL (≈ 2.03 µM)

CCC1OC(=O)CC(O)C(C)C(OC2OC(C)C(OC3CC(C)(O)C(O)C(C)O3)C(N(C)C)C2OC(C)=O)C(CC=O)CC(C)C(=O)C=CC(C)=CC1COC1OC(C)C(OC(C)=O)C(OC(=O)COc2ccccc2)C1OC (stereo not shown) [Compound 19, 2',4'"-Di-O-acetyl-3'"-O-phenoxyacetyl-macrocin]
MIC [2]: 0.25 µg/mL (≈ 0.223 µM)
MIC [3]: 1 µg/mL (≈ 0.893 µM)
MIC [4, 29]: > 50 µg/mL
MIC (Mycoplasma synoviae 40A): 0.78 µg/mL (≈ 0.696 µM)
MIC [5, 30]: > 50 µg/mL
MIC [6, 30]: > 50 µg/mL
MIC [7]: 0.78 µg/mL (≈ 0.696 µM)
MIC [8, 31]: > 50 µg/mL
MIC [9]: 6.25 µg/mL (≈ 5.58 µM)
MIC [10, 30]: > 50 µg/mL
MIC [11, 30]: > 50 µg/mL
MIC [12]: 25 µg/mL (≈ 22.3 µM)
MIC [13, 30]: > 50 µg/mL
MIC (Streptococcus sp. 19F): 1.56 µg/mL (≈ 1.39 µM)
MIC (Mycoplasma hyorhinis 29E): 3.12 µg/mL (≈ 2.78 µM)
MIC [14, 30]: > 50 µg/mL
MIC [15]: 50 µg/mL (≈ 44.6 µM)
MIC [16, 30]: > 50 µg/mL
MIC [17, 32]: > 128 µg/mL
MIC [18]: 1 µg/mL (≈ 0.893 µM)
MIC ([19]; agar-dilution, read-out: MIC): > 128 µg/mL
MIC [20]: > 128 µg/mL
MIC [21]: 1 µg/mL (≈ 0.893 µM)
MIC [22]: 2 µg/mL (≈ 1.79 µM)
MIC (Escherichia coli EC14; agar-dilution, read-out: MIC): > 128 µg/mL
MIC ([23]; agar-dilution, read-out: MIC): > 128 µg/mL
MIC [24]: 0.5 µg/mL (≈ 0.446 µM)
MIC [25]: 2 µg/mL (≈ 1.79 µM)
MIC [26]: 2 µg/mL (≈ 1.79 µM)
MIC [27]: 1 µg/mL (≈ 0.893 µM)
MIC [28]: 1 µg/mL (≈ 0.893 µM)
